Earlier results, collected in patent US8603529B2, “Polynucleotide aptamer-based cross-linked materials and uses thereof” (Smartcells, Inc., priority 2009, dated 2013).

Biological target: avidin (Gallus gallus, UniProt P02701)
Sequence (P02701 25-152, species assumed): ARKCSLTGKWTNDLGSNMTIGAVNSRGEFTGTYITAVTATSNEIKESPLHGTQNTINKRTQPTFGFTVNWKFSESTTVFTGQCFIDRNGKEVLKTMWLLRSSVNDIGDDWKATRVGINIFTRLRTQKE

In the case of `O=C(O)CCCC[C@@H]1SC[C@@H]2NC(=O)N[C@@H]21` [biotin], the “binding constant between biotin and avidin” value is given as 10^15 M^−1.
